Values joined by “and” are separate entries in the source; they are usually repeats but may differ in a detail not shown here. Equal entries are not always repeated.
How the values were obtained:
[1] = tested on: SH-SY5Y neuroblastoma cells; format: cell-based; conditions: MTT
Procedure: To determine the biological safety of the synthesized compounds, we performed a cytotoxicity study using a human SH-SY5Y neuroblastoma cell line.
SH-SY5Y cells were cultured in 96-well plates (1 × 10^5 cells/well) in a medium containing fetal bovine serum (FBS), penicillin (100 U/ml), and streptomycin ([…]) at 37 °C and 5% CO2. […] Subsequently, synthesized compounds were added to cells, followed by the addition of 20 μL of MTT reagent (10 mg/mL) at the specified time. Plates were then incubated at 37 °C and 5% CO2, and purple color precipitate formation was observed by a microscope. Lastly, DMSO ([…]) was added to solubilize precipitates, and the plates were read at 570 nm to determine the cell viability. Results are expressed as percentage growth of cells, in which their viability is compared to control cells in the presence or absence of synthesized compounds and a standard. The following formula was utilized for the measurement of the % cell viability. [drawing 1]

[2] = biological target: T1, equine serum lyophilized BChE (Equus caballus, UniProt P81908); experiment: biochemical; conditions: mean ± SEM, n = 3; read-out: IC50 (μM) ± SEM eqBChE
T1 construct: Equine Serum lyophilized BChE; from tissue; host or cells: equine serum
Procedure: (§1) The synthesized compounds were evaluated for their inhibition potential against cholinesterases (Electrophorus electricus AChE and equine serum lyophilized BChE).
(§2) The cholinesterase in vitro bioassay for the synthesized compounds was performed using already reported protocols.[29],[30] Ellman’s assay method was used to study the inhibition of Electrophorus electricus AChE and Equine Serum lyophilized BChE. Stock solutions of synthesized compounds were prepared in potassium phosphate buffer (pH 8.0). A sufficient amount of 5,5-dithio-bis-2-nitrobenzoic acid (DTNB, Ellman’s reagent), a stock solution of synthesized compounds, and 0.03 U/ml of the enzyme (AChE or BChE) were added to a 96-well plate and incubated at 30 °C for 10 min. Subsequently, 1 mM ATCI or BTCI was added, and the reaction mixture was incubated for 15 min. […] Sample concentration was plotted against inhibitory activity to obtain IC50 values.

[3] = biological target: Electrophorus electricus AChE (Electrophorus electricus, UniProt O42275); experiment: biochemical; format: biochemical; conditions: for IC50: mean ± SEM, n = 3, read-out: IC50 (μM) ± SEM eeAChE; for SI = IC50 of BChE/IC50 of AChE: selectivity index
Procedure: as §1, §2

[4] = biological target: T2, mice brain MAO-B (Mus musculus, UniProt Q8BW75); experiment: Ex vivo MAO-B inhibition reversibility time course; format: in vivo, ICR mice; conditions: after 24 h, single ip dose
T2 construct: from tissue; host or cells: ICR mouse brain homogenate pellet
T2 sequence (Q8BW75 1-520): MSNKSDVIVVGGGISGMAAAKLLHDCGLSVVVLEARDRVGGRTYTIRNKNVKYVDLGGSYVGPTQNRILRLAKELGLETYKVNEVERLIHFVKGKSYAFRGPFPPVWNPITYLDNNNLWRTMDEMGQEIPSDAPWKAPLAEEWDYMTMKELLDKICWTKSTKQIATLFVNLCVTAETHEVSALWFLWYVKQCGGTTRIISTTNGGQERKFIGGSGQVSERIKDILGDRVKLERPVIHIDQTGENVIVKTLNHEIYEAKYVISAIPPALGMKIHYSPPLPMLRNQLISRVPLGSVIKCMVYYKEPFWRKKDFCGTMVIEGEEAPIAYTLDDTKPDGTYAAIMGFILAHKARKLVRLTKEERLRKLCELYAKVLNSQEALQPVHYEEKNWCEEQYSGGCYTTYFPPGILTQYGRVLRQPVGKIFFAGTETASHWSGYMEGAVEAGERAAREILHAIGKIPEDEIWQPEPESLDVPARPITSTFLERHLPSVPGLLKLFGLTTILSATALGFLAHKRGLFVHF
Procedure: After the experiments, the animals were euthanized following Animal Euthanasia (AVMA Guidelines) guidelines to ensure humane treatment. Five groups of ICR mice were administered test samples by intraperitoneal injection, and the intact brains were excised and were then frozen for almost 1 h (−20 °C). Brain tissue ([…]) was suspended in sucrose (0.3 M) using a homogenizer (Ultra-Turrax T8; at 60 Hz for almost 70 s) and then subjected to centrifugation for 10 min at 1500 rpm (4 °C). 200 μL of supernatant was collected and centrifuged for 20 min at 15,000 rpm and 4 °C. Subsequently, the formed pellet was resuspended in KHPO4 solution (pH 7.2, 600 μL) and then subjected to 20 min centrifugation at 15,000 rpm and 4 °C. This process was repeated three times. Enzyme activity was determined using an Assay Kit (monoamine oxidase). […] The mice were then sacrificed at intervals ranging from 0.5 to 48 h.[34]

[5] = biological target: T3, human MAO-B (Homo sapiens, UniProt P27338); experiment: Human MAO isoform inhibition assay (fluorometric), MAO-B; format: biochemical; conditions: for IC50: mean ± SEM, n = 3, read-out: IC50 (μM) ± SEM hMAO-B; for SI (IC50 hMAO-A/IC50 hMAO-B): selectivity index
T3 sequence (P27338 1-520): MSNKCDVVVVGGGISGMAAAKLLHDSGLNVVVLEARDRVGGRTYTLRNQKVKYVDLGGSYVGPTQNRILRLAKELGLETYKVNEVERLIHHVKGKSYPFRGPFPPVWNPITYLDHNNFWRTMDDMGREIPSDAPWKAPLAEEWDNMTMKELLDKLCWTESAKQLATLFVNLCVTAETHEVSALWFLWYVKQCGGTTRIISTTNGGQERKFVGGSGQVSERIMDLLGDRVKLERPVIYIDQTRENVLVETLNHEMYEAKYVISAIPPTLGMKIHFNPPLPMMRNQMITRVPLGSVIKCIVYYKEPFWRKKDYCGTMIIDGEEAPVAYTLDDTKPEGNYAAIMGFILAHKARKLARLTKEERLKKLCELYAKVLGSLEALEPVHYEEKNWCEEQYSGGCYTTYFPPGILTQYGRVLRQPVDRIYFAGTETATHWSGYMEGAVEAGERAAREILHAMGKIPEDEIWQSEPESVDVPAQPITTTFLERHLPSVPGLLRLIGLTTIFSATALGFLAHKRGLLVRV
Procedure: (§3) The human MAO isoform assay was also carried out using a fluorescence-based assay protocol according to the reported literature.
(§4) Inhibitory activity of the synthesized compounds against MAO isoforms, specifically human MAO-A and MAO-B, was determined by using benzylamine and tyramine substrates in the dark (protected from light) in a 96-well plate by an already reported fluorometric method.[31],[32]

[6] = biological target: T4, human MAO-A (Homo sapiens, UniProt P21397); experiment: Human MAO isoform inhibition assay (fluorometric), MAO-A; format: biochemical; conditions: mean ± SEM, n = 3; read-out: IC50 (μM) ± SEM hMAO-A
T4 sequence (P21397 1-527): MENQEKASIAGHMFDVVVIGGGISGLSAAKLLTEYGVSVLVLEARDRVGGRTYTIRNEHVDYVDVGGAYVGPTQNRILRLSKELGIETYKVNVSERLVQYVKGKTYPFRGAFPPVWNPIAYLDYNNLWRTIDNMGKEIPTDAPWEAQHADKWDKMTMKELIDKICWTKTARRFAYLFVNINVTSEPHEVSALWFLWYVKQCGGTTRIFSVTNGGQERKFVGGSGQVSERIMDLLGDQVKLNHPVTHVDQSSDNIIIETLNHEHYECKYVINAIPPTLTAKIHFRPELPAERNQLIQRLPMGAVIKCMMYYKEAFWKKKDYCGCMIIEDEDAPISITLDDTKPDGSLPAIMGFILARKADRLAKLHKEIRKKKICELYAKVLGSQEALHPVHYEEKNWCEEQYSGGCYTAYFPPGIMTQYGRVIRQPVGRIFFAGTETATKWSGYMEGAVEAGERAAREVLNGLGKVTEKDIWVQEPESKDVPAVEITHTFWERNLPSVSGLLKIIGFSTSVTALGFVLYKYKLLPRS
Procedure: as §3, §4

[7] = in vitro; conditions: for Papp at 20 h: PAMPA, pH 7.4; for prediction of CNS penetration: class from PAMPA-BBB Pe
Procedure: A fundamental requirement for the effectiveness of anti-AD drugs is their capability to traverse the BBB (blood–brain barrier). […]
Briefly, synthesized compounds were first dissolved in DMSO (10 mM) that was further diluted by the addition of phosphate buffer ([…]) having a pH of 7.4. PBL dissolved in dodecane was used for coating the membranes of the donor plates. Then, the test compound (0.2 mL) was added to the plate, followed by PBS (0.2 mL; pH = 7.4) to the acceptor plate, which was further placed under the donor plate in order to form a “sandwich”. […] A UV plate reader was employed for the measurements of the drug concentration in donor, acceptor, and reference wells. The permeability (Pe) of the compounds was measured by using the following formula. [drawing 2]

Electrophorus electricus AChE, sequence (O42275 24-633): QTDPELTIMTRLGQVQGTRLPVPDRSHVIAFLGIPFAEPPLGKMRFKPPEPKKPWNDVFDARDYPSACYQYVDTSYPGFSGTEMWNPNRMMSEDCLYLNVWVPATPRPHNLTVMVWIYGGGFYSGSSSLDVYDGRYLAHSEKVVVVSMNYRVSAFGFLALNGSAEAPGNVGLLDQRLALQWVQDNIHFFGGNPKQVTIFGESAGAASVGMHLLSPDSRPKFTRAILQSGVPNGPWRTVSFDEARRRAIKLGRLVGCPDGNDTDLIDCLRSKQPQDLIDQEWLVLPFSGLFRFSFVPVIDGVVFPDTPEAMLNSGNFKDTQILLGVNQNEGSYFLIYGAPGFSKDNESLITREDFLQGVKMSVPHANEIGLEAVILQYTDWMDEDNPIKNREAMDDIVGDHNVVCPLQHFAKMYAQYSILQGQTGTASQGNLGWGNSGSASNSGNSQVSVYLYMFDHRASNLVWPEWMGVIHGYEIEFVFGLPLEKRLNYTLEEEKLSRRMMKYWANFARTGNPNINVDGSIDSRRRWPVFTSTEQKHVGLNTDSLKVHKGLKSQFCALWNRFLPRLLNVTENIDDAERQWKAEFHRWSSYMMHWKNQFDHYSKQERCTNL
T1 sequence (P81908 whole entry): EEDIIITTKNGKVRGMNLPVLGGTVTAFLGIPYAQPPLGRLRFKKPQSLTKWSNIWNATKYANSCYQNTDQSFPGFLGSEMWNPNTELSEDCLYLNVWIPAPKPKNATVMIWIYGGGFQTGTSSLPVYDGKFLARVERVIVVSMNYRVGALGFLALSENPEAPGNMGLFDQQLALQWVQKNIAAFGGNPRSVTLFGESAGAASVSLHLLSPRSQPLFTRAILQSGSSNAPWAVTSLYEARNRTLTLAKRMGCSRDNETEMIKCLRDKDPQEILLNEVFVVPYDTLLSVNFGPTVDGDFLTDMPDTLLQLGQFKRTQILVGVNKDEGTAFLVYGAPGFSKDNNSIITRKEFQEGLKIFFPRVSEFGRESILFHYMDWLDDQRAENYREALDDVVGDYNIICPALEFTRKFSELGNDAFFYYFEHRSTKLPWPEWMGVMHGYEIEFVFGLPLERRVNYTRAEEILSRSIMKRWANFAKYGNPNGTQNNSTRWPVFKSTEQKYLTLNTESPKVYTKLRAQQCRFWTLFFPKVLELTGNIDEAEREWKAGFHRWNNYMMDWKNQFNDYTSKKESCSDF

Structure (SMILES) | cytotoxicity on SH-SY5Y cells ([1]; 10, 20, 30, and 50 μM) | neurotoxicity on SH-SY5Y cells ([1]; higher concentrations (100 μM)) | IC50 [2] [µM] | IC50 [3] [µM] | SI = IC50 of BChE/IC50 of AChE [3] | activity of MAO-B recovered [4] [%] | IC50 [5] | SI (IC50 hMAO-A/IC50 hMAO-B) [5] | IC50 [6] [µM] | Papp at 20 h [7] [nm/s] | prediction of CNS penetration [7]
O=C1c2ccccc2C(=O)N1Cc1ccc(-c2cccc(C(F)(F)F)c2)cc1 [3f] | No cytotoxicity | negligible neurotoxicity | 17 ± 1.04 | 4.48 ± 0.11 | 4 | ~80 | 0.09 µM and 0.091 µM | 124 | 11.3 ± 0.2 | 183 ± 12.7 | CNS+ (“CNS+” (prediction of high BBB permeation); Pe (10^–6 cm/s) > 4.39)
O=C1c2ccccc2C(=O)N1Cc1ccc(-c2cccc3ccccc23)cc1 [3j] | – | – | 18.9 ± 1.08 | 0.61 ± 0.03 | 31 | – | 0.13 ± 0.01 µM | 53 | 6.98 ± 0.2 | – | –
N#Cc1ccc(-c2ccc(CN3C(=O)c4ccccc4C3=O)cc2)cc1 [3d] | – | – | 33.5 ± 1.09 | 9.21 ± 0.14 | 4 | – | 0.64 ± 0.03 µM | 45 | 28.8 ± 1.44 | – | –
Cc1ccc2cc(-c3ccc(CN4C(=O)c5ccccc5C4=O)cc3)ccc2n1 [3m] | – | – | 31.1 ± 0.79 | 0.89 ± 0.1 | 35 | – | 0.15 ± 0.01 µM | 156 | 23.5 ± 1.12 | – | –
C[C@H](NCc1ccc(OCc2cccc(F)c2)cc1)C(N)=O [safinamide, reference compound] | – | – | – | – | – | – | – | – | – | 75.6 ± 0.2 | CNS+ (“CNS+” (prediction of high BBB permeation); Pe (10^–6 cm/s) > 4.39)
Cc1ccc(-c2ccc(CN3C(=O)c4ccccc4C3=O)cc2)cc1 [3a] | – | – | 49.1 ± 1.36 | 3.16 ± 0.09 | 15 | – | 1.04 ± 0.03 µM | 18 | 19.3 ± 1.28 | – | –
Cc1cc(C)cc(-c2ccc(CN3C(=O)c4ccccc4C3=O)cc2)c1 [3h] | – | – | 29.6 ± 1.16 | 0.73 ± 0.04 | 40 | – | 0.64 ± 0.02 µM | 117 | 75.1 ± 1.25 | – | –
Cc1cc(C)c(-c2ccc(CN3C(=O)c4ccccc4C3=O)cc2)c(C)c1 [3i] | – | – | 49.2 ± 1.11 | 0.88 ± 0.05 | 56 | – | 0.71 ± 0.04 µM | 71 | 50.9 ± 1.42 | – | –

— publication PMC11923636, “Synthesis, Pharmacological Evaluation, and Molecular Modeling of Phthalimide Derivatives as Monoamine Oxidase and Cholinesterase Dual Inhibitors” (ACS Omega, 2025)
